Test results reported in patent US12677825B2, “Composition for protecting islet transplantation” (LG CHEM, LTD., priority 2020, dated 2026).

Tests used:
[1] = test system: islets from hIAPP+/− FVB/N mice; experiment: Intracellular free radical detection and lipid peroxidation after islet isolation; type: cell-based, mouse; conditions: 20 μM Compound 1 during islet isolation, vs control islets
Method: (§1) Mouse islets were isolated from 10- to 12-week-old hIAPP^+/− and C57BL/6 mice as described previously. Briefly, 0.8 mg/mL of collagenase P (Roche, Indianapolis, IN, USA) in Hank's buffered saline solution (HBSS, Sigma-Aldrich, St. Louis, MO, USA) with or without 20 μM Compound 1 were infused into the common bile duct for mouse pancreas digestion. Islets were purified from the digested pancreas using a Ficoll (Biochrom, Berlin, Germany) gradient and washed several times with 1 xHBSS. Isolated islets were cultured while free-floating in 10 mL of RPMI 1640 (Gibco, Grand Island, NY, USA). The medium was supplemented with 10% heat-inactivated FBS (fetal bovine serum) at 37° C. and 5% CO2 incubation prior to the ex vivo and in vivo studies.
The oxidative stress levels in hIAPP^+/− mouse islets were determined right after islet isolation and after ex vivo culture of isolated islets. The oxidative stress of the islets was quantified using a fluorescence-based intracellular ROS detection method and by estimating the concentration of malondialdehyde (MDA), a by-product of lipid peroxidation. The formation of total ROS, superoxide ion and nitric oxide was determined using a reactive oxygen species detection kit (ENZ-51011, Enzo Life Sciences, Farmingdale, New York, USA). The ROS content was measured by levels of DHR123 fluorescence. The kit was applied according to the manufacturer's protocol.

[2] = test system: islets from hIAPP+/− mouse; experiment: GSIS assay after serum-deprived culture; type: cell-based; conditions: Compound 1 added to medium during serum-deprived culture; FIG. 6E
Method: Purified hIAPP^+/− FVB/N and C57BL/6J mouse were suspended in RPMI 1640 (Gibco, Grand Island, NY, USA) containing 100 IU/mL penicillin and 100 μg/mL streptomycin, and cultured at 37° C. in a fully humidified 5% CO2 atmosphere. Purified NHP islets were suspended in CMRL 1066 medium (Coming Life Sciences, Tewksbury, MA; catalog number 99-663-CV) containing 100 IU/mL penicillin and 100 μg/mL streptomycin, and cultured at 37° C. in a fully humidified 5% CO2 atmosphere. […]
After hand-picking and washing with PBS, islets were seeded on 12-mm diameter insert wells (Merck Millipore, Billerica, MA, USA) with 10 islets per well, and preincubated with 60 mg/dL glucose in Kreb's-Ringer buffer (KRB: 129 mM NaCl, 4.8 mM KCl, 2.5 mM CaCl2, 1.2 mM KH2PO4, 5 mM NaHCO3, 10 mM HEPES, and 0.2% BSA) for 90 mM at 37° C. […] Insulin release into the supernatant by the mouse islets was measured by ELISA (ALPCO, Salem, NH, USA) and a multiplex kit (Merck Millipore), respectively.

[3] = test system: wild type C57BL/6 mouse islets; experiment: Effects of Compound 1 during isolation on wild type mouse islets (viability, function, cytokine expression); type: cell-based; conditions: Compound 1 during islet isolation; FIG. 2
Method: as §1

[4] = test system: c-Jun N-terminal kinases, HMGB1, IL-1β, IL-6, TNF-α; experiment: Real-time qRT-PCR of c-Jun, HMGB1 and proinflammatory cytokines after islet isolation; type: cell-based, mouse; conditions: after isolation with 20 μM Compound 1, vs non-treated group; FIG. 1F
Method: as §1, with “The medium was supplemented with 10% heat-inactivated FBS (fetal bovine serum) at 37° C. and 5% CO2 incubation prior to the ex vivo and in vivo studies.” left out
Harvested islets were treated with 500 μL Trizol (Life Technologies, Grand Island, NY, USA), and then 100 μL of chloroform was added. […] RNA purity was assessed by NanoDrop (Thermo Scientific, Wilmington, DE, USA) and agarose gel electrophoresis. […] Total RNA was reverse transcribed to quantify the expression of genes using the SuperScript™ II reverse transcription system (Life Technologies) according to the manufacturer's protocol.
Real-time qRT-PCR was performed using gene-specific primer pairs (Table 1). […] To quantify the expression level of genes, real-time PCR was performed using a SYBR premix kit (Takara Bio Inc., Tokyo, Japan) and an ABI Prism 7000 (Applied Biosystems, Foster City, CA, USA) according to the manufacturers' protocols.

[5] = test system: islets from hIAPP+/− FVB/N mice; experiment: ATP assay of islets isolated with or without Compound 1; type: cell-based, mouse; conditions: 20 μM Compound 1 during islet isolation, vs non-treated group; FIG. 1B
Method: as §1
ATP content of islets was assayed by a luminometric method. The samples were mixed with 200 μL of a commercially available lyophilized ATP monitoring reagent containing firefly luciferase and luciferin (ATP Bioluminescence Assay KIT CLS II, Roche Diagnostics) at first reconstituted in an imidazole buffer (100 mM, pH 7.75). The emitted light was measured in a luminometer (LKB 1250 luminometer). The adenine nucleotide content in samples was determined after correction of the control (no islet or cell) and calculated by reference to ATP standards treated in the same manner as the samples.

With `O=S1(=O)CCN(Cc2cc(NC3CCOCC3)c3[nH]c(-c4ccccc4)cc3c2)CC1` [Compound 1] the “ROS contents in islets” value ([1]; FIG. 1C) was “markedly decreased”, the “oxidative stress levels in islets” value ([1]; FIG. 1D) was “markedly decreased” and the stimulation index [2] was “significantly increased”. The “reproduction of isolation results (viability, function, pro-inflammatory cytokine expression) in wild type islets” value [3] was “reproduced”, the “transcriptional expression of c-Jun N-terminal kinases, HMGB1, IL-1β, IL-6 and TNF-α” value [4] was “significantly decreased” and the “levels of ATP” value [5] was “significantly elevated”.
